Calls of active or inactive are those of the source.
Tests used:
Format in all cases: functional
[1] = molecular target: T1, Apoptotic protease-activating factor 1 (Homo sapiens, UniProt O14727)
T1 sequence (O14727 whole entry): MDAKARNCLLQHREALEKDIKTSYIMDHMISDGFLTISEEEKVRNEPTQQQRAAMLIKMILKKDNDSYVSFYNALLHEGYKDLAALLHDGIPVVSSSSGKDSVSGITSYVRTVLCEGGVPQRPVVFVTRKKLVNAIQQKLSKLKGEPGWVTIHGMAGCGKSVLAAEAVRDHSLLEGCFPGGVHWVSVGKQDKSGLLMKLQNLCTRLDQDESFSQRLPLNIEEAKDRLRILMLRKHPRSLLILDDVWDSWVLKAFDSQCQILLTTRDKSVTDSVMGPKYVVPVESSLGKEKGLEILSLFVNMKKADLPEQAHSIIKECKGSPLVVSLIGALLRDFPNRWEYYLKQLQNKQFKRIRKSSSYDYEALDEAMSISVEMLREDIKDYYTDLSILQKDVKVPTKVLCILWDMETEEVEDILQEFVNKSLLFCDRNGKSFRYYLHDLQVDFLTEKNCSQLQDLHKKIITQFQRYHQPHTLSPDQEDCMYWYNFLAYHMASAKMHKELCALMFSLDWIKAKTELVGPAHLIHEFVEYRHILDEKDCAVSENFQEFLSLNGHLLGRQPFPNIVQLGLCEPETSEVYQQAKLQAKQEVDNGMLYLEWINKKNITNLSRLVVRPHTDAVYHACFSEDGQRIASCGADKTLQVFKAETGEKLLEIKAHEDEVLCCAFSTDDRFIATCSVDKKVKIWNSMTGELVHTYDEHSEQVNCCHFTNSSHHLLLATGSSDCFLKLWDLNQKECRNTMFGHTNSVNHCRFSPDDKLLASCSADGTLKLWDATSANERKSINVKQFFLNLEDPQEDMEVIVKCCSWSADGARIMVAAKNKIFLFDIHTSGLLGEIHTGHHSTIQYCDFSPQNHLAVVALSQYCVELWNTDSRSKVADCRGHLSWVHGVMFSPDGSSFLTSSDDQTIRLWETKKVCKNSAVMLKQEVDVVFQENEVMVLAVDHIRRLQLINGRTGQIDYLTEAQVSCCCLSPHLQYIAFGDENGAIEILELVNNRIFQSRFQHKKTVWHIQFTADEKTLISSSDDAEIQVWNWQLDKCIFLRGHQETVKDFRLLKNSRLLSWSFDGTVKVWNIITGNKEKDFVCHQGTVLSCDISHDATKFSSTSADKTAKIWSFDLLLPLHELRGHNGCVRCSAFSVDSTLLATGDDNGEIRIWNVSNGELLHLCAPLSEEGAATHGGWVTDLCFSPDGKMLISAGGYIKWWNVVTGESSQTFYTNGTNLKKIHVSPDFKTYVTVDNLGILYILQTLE

[2] = molecular target: T2, Caspase-3 (Homo sapiens, UniProt P42574);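 further: Dose-response selectivity test against caspase-3 for candidate inhibitors of sentrin-specific proteases (SENPs)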
T2 sequence (P42574 whole entry): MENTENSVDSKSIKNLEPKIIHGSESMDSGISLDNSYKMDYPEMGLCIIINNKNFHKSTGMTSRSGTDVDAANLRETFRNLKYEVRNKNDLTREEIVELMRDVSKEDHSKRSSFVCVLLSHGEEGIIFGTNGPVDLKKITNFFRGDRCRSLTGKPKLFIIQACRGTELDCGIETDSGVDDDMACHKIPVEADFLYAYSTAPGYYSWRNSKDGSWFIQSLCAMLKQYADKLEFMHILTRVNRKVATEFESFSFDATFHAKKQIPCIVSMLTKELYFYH

[3] = molecular target: ALK tyrosine kinase receptor (Homo sapiens, UniProt Q9UM73);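 further: ALK tested as one member of a kinase panel screen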
[4] = molecular target: LIM domain kinase 1 (Homo sapiens, UniProt P53667); experiment: Navigating the Kinome. Panel member name: LIMK1
[5] = molecular target: T3, Serine/threonine-protein kinase TBK1 (Homo sapiens, UniProt Q9UHD2); experiment: Navigating the Kinome. Panel member name: TBK1
T3 sequence (Q9UHD2 whole entry): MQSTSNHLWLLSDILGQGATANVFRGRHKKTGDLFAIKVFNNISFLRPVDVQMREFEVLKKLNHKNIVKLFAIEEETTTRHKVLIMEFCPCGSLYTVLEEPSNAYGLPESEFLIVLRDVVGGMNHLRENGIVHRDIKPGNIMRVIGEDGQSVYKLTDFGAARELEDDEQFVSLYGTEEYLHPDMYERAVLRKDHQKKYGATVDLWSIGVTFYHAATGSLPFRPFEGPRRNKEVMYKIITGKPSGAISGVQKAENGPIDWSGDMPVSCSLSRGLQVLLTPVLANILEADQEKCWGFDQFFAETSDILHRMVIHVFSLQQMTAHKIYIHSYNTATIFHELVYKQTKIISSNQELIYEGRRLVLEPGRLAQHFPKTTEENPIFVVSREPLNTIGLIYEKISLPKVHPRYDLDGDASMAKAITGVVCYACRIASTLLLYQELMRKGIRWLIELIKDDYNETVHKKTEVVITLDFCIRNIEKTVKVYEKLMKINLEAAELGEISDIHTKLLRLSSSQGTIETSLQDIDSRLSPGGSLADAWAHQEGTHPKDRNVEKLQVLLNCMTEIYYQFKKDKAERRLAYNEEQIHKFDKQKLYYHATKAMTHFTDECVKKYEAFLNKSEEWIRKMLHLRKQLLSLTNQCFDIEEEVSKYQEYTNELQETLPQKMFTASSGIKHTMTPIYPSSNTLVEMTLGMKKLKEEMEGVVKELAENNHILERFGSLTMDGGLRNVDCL

[6] = molecular target: Serine/threonine-protein kinase pim-1 (Homo sapiens, UniProt P11309)
[7] = molecular target: Cyclin-dependent kinase 9 (Homo sapiens, UniProt P50750);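 further: value from the CDK9 entry of a kinome-spanning kinase panel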
[8] = molecular target: Death-associated protein kinase 3 (Homo sapiens, UniProt O43293);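 further: measured as one member of a kinome-wide profiling panel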
[9] = molecular target: Glycogen synthase kinase-3 beta (Homo sapiens, UniProt P49841);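 further: value comes from a broad kinome profiling panel, with GSK3B as the panel member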
[10] = molecular target: Dual specificity protein kinase CLK4 (Homo sapiens, UniProt Q9HAZ1)
[11] = molecular target: Leukocyte tyrosine kinase receptor (Homo sapiens, UniProt P29376); experiment: Navigating the Kinome. Panel member name: LTK
[12] = molecular target: Fibroblast growth factor receptor 1 (Homo sapiens, UniProt P11362)
[13] = molecular target: Cyclin-dependent kinase 7 (Homo sapiens, UniProt P50613);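 further: value comes from a kinome-wide kinase profiling panel in which CDK7 is one member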
[14] = molecular target: Vascular endothelial growth factor receptor 2 (Homo sapiens, UniProt P35968)
[15] = molecular target: BDNF/NT-3 growth factors receptor (Homo sapiens, UniProt Q16620);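 further: NTRK2 measured as one member of a broad kinome-wide kinase profiling panel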
BDNF/NT-3 growth factors receptor, sequence (Q16620 whole entry): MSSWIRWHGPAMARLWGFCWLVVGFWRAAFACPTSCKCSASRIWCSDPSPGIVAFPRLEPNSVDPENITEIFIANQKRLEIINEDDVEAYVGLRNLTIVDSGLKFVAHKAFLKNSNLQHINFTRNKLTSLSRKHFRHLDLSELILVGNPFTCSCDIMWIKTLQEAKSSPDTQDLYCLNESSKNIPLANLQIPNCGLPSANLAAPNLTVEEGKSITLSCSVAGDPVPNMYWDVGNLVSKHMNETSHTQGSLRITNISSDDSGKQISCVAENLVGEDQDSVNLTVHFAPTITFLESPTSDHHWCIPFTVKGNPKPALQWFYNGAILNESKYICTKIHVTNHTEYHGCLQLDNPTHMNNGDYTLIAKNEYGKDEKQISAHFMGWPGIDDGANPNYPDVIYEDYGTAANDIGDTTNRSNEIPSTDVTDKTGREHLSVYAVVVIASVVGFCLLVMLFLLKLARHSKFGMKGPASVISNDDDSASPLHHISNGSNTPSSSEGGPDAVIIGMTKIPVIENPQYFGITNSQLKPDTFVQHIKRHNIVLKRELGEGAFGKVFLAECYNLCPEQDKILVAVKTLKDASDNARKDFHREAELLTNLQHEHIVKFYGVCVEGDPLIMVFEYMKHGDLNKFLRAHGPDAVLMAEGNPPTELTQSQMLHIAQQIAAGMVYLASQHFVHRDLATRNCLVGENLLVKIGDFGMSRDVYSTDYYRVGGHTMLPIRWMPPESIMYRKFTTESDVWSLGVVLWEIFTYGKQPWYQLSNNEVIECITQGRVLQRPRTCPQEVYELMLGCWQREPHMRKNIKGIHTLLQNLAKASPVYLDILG

Glycogen synthase kinase-3 beta, sequence (P49841 whole entry): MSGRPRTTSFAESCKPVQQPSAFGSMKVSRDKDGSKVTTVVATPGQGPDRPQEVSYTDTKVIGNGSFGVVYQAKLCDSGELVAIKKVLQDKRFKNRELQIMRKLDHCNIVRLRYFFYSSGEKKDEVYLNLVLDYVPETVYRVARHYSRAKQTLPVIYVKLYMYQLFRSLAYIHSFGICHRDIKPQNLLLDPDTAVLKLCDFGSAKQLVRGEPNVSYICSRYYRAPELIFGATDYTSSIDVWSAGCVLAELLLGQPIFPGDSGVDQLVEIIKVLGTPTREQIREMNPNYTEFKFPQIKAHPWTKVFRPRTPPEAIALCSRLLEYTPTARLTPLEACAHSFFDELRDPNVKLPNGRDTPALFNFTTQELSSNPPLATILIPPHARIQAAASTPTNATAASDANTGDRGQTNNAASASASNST
Cyclin-dependent kinase 7, sequence (P50613 whole entry): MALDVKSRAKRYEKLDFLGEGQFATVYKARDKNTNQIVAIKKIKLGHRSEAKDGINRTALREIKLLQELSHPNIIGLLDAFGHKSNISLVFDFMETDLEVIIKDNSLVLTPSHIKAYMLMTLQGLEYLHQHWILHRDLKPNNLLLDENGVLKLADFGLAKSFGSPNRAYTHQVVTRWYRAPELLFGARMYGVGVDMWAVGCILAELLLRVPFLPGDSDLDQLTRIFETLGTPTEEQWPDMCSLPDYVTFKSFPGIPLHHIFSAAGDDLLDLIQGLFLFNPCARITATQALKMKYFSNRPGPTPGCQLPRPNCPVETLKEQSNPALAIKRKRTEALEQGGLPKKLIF
LIM domain kinase 1, sequence (P53667 whole entry, the tested form may be a part): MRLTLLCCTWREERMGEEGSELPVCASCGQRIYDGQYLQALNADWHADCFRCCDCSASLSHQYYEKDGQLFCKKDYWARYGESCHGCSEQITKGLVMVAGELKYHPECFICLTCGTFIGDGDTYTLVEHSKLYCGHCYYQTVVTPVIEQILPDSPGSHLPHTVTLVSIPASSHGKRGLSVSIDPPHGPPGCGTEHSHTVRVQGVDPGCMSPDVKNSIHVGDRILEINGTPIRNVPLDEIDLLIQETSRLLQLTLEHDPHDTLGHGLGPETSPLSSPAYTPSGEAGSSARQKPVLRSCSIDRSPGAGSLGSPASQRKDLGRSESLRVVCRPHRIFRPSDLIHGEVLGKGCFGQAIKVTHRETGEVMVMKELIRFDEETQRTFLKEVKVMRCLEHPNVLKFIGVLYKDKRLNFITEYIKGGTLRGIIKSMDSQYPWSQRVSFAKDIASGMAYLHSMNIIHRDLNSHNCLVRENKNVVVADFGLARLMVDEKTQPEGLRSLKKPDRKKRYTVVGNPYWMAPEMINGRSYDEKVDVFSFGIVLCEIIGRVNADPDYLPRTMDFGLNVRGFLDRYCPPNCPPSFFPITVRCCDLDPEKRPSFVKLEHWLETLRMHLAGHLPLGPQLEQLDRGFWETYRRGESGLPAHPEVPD
Vascular endothelial growth factor receptor 2, sequence (P35968 whole entry): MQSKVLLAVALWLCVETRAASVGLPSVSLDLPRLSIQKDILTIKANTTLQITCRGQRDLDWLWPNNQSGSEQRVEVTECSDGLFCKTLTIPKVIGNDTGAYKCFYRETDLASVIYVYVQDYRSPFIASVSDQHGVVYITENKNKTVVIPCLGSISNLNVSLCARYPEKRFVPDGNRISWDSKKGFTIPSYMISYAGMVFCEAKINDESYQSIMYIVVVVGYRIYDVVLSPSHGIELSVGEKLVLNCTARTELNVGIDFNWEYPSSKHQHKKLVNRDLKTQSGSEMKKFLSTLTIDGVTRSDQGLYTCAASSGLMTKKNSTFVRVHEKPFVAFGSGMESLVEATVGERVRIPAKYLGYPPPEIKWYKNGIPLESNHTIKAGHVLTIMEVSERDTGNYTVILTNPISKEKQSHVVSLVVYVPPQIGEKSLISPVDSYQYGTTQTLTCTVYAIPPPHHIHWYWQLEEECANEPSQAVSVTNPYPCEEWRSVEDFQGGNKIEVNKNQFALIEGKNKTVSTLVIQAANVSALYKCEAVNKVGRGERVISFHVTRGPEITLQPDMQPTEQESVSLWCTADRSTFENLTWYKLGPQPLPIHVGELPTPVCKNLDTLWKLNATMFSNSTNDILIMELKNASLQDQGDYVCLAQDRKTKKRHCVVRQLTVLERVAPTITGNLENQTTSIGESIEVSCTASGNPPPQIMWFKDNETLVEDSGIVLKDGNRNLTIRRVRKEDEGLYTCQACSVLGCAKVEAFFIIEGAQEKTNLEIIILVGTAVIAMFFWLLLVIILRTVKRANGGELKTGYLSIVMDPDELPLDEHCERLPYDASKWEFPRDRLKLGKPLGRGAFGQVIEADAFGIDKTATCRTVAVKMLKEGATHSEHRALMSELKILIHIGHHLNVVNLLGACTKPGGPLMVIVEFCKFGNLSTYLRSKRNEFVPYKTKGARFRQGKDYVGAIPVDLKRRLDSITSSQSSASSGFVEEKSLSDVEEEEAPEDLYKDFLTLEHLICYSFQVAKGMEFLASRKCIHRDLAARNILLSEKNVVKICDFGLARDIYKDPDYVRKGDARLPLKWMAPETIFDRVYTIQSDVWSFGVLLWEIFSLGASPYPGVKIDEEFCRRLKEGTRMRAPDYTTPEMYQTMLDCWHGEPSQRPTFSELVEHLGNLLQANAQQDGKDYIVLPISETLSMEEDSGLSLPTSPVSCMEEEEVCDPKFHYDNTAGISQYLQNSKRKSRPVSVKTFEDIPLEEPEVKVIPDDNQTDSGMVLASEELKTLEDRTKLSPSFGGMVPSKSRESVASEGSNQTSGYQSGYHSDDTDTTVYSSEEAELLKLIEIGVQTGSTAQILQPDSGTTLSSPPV
Death-associated protein kinase 3, sequence (O43293 whole entry): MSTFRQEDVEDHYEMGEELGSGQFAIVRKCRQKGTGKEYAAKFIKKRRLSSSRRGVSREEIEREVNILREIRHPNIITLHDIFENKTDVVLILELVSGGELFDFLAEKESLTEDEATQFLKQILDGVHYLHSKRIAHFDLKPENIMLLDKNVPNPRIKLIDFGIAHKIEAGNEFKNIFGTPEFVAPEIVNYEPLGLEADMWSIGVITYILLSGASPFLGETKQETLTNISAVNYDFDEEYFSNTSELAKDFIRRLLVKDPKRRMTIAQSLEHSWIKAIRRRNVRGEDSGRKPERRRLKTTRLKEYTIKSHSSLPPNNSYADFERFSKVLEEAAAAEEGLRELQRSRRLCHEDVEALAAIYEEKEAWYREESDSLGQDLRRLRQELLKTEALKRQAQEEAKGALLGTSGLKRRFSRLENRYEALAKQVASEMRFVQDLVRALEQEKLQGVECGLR
Cyclin-dependent kinase 9, sequence (P50750 whole entry): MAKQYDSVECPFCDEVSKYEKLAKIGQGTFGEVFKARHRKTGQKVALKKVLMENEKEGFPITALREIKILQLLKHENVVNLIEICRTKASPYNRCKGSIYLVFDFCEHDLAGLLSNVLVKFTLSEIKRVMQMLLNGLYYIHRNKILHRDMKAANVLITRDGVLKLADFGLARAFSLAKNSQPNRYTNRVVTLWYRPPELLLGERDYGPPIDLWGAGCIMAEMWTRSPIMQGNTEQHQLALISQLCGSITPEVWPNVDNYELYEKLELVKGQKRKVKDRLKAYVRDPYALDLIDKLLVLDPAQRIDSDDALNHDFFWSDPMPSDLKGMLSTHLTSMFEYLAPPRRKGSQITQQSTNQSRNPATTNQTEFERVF
Serine/threonine-protein kinase pim-1, sequence (P11309 whole entry): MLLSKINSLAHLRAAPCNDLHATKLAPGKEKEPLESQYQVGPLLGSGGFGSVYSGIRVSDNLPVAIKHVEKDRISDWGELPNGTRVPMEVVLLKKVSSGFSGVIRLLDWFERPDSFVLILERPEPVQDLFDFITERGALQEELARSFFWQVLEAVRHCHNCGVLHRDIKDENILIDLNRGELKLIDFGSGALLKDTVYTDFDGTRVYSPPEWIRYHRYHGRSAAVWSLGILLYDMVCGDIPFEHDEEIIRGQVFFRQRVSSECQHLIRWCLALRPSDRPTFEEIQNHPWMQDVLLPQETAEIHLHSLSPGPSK

| SMILES | Ki [3] | Ki [4] | Ki [5] | Ki [6] | Ki [7] | Ki [9] | Ki [10] | Ki [11] | Ki [12] | Ki [13] | Ki [14] | Ki [15] | IC50 [1] | IC50 [2] | Ki [8] |
| --- | --- | --- | --- | --- | --- | --- | --- | --- | --- | --- | --- | --- | --- | --- | --- |
| O=C(NC1=C(Nc2ccc(F)cc2)C(=O)c2ccccc2C1=O)c1ccc(Cl)cc1 | – | – | – | – | – | – | – | – | – | – | – | – | 16200 nM (active) | 19000 nM (active) | – |
| Oc1nc(Nc2ccc(F)cc2)cc2ccccc12 | – | – | – | – | – | – | – | – | – | – | – | – | 3760 nM (active) | 4770 nM (active) | – |
| COc1cc2cc(NC(C)=O)cc(NCc3ccccc3)c2cc1OC | – | – | – | – | – | – | – | – | – | – | – | – | 20700 nM (active) | – | – |
| CCN(CC)CCOc1ccc2c(c1)C(=NNC(=O)c1ccccn1)c1cc(OCCN(CC)CC)ccc1-2 | – | – | – | – | – | – | – | – | – | – | – | – | 10200 nM (active) | – | – |
| CN(C)c1cc(N/N=C\c2ccccc2)nc(N(C)C)n1 | – | – | – | – | – | – | – | – | – | – | – | – | 1100 nM (active) | > 100000 nM (inactive) | – |

Second part, led by results:

| Ki [3] | Ki [4] | Ki [5] | Ki [6] | Ki [7] | Ki [9] | Ki [10] | Ki [11] | Ki [12] | Ki [13] | Ki [14] | Ki [15] | SMILES | IC50 [1] | IC50 [2] | Ki [8] |
| --- | --- | --- | --- | --- | --- | --- | --- | --- | --- | --- | --- | --- | --- | --- | --- |
| 200 nM (active) | 501 nM (active) | 7.94 nM (active) | 631 nM (active) | 158 nM (active) | 2.51 nM (active) | 0.316 nM (active) | 126 nM (active) | 126 nM (active) | 10 nM (active) | 0.631 nM (active) | 5.01 nM (active) | NC(COc1cncc(-c2ccc3c(c2)C(=Cc2ccc[nH]2)C(=O)N3)c1)Cc1ccccc1 (configuration not stated) | – | – | 5.01 nM (active) |
| 12.6 nM (active) | 2510 nM (active) | 1260 nM (active) | 251 nM (active) | 79.4 nM (active) | 501 nM (active) | 1260 nM (active) | 3.98 nM (active) | 1260 nM (active) | > 3980 nM (inactive) | 12.6 nM (active) | 631 nM (active) | O=C1Nc2cc(-c3ccc(O)cc3)ccc2C1=Cc1ccc[nH]1 | – | – | 7.94 nM (active) |
| 63100 nM (active) | 63100 nM (active) | 79400 nM (active) | 50100 nM (active) | 15800 nM (active) | 15800 nM (active) | 6310 nM (active) | 15800 nM (active) | 50100 nM (active) | 39800 nM (active) | 31600 nM (active) | 100000 nM (active) | O=C1Cc2cc(-c3ccccc3)cnc2N1 | – | – | 39800 nM (active) |
